According to US12428406B2 (PMV Pharmaceuticals, Inc., priority 2019, dated 2025):

Each compound was assayed against T1, p53 Y220C (Homo sapiens, UniProt P04637, Y220C) (assay: In vitro DNA binding activity assay (HTRF / TR-FRET): stabilization of p53 Y220C and increase of its DNA binding activity). Details: recombinant His-tagged p53 Y220C DNA binding domain (aa 94-312), biotin-labeled consensus DNA, incubated at 27° C. or 29° C. for 60 min.
T1 construct: The recombinant protein was a truncation mutant containing only amino acids 94-312 of p53; made in house; host or cells: E. coli
Assay type: biochemical
In short: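 Compounds from 4.5 mM DMSO stocks, 3-fold serial dilutions; room-temperature incubations of 15 and 20 min. SC150 = concentration raising DNA binding by 50% over no-compound control.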

T1 sequence (P04637 94-312, change not shown): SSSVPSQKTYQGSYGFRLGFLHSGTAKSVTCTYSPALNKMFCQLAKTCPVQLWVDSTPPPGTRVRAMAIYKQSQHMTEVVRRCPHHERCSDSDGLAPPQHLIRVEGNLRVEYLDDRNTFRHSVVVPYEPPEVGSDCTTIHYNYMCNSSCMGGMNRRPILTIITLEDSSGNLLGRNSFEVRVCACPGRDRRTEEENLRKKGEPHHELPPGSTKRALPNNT

| Structure (SMILES) | SC150 (concentration of the compound required to increase the DNA binding activity by 50%) |
| --- | --- |
| CN(C)[C@H]1CC[C@@H](Nc2cccc3c2cc(C#CCNc2ccc(S(C)(=O)=O)cc2OCCO)n3CC(F)(F)F)CC1 [Compound 88A, 2-(5-methanesulfonyl-2-{[3-(4-{[(1S,4S)-4-(dimethylamino)cyclohexyl]amino}-1-(2,2,2-trifluoro-ethyl)-1H-indol-2-yl)prop-2-yn-1-yl]amino}phenoxy)ethan-1-ol] | + (+ = 0 μM ≤ SC150 < 0.05 μM) |
| COCCOc1cc(S(C)(=O)=O)ccc1NCC#Cc1cc2c(N[C@H]3CC[C@H](N(C)C)CC3)cccc2n1CC(F)(F)F [Compound 89A, (1R,4R)-N^4-[2-(3-{[4-methanesulfonyl-2-(2-methoxyethoxy)phenyl]amino}prop-1-yn-1-yl)-1-(2,2,2-trifluoro-ethyl)-1H-indol-4-yl]-N^1,N^1-dimethylcyclo-hexane-1,4-diamine] | + (+ = 0 μM ≤ SC150 < 0.05 μM) |
| CN(C)[C@H]1CC[C@H](Nc2cccc3c2cc(C#CCNc2ccc(S(C)(=O)=O)cc2OCC(F)(F)F)n3CC(F)(F)F)CC1 [Compound 92A, (1R,4R)-N^4-[2-(3-{[4-methanesulfonyl-2-(2,2,2-trifluoroethoxy)phenyl]amino}prop-1-yn-1-yl)-1-(2,2,2-trifluoro-ethyl)-1H-indol-4-yl]-N^1,N^1-dimethylcyclo-hexane-1,4-diamine] | + (+ = 0 μM ≤ SC150 < 0.05 μM) |
| CN(C)[C@H]1CC[C@@H](Nc2cccc3c2cc(C#CCNc2ccc(S(C)(=O)=O)cc2OCC(F)(F)F)n3CC(F)(F)F)CC1 [Compound 93A, (1S,4S)-N^4-[2-(3-{[4-methanesulfonyl-2-(2,2,2-trifluoroethoxy)phenyl]amino}prop-1-yn-1-yl)-1-(2,2,2-trifluoro-ethyl)-1H-indol-4-yl]-N^1,N^1-dimethylcyclo-hexane-1,4-diamine] | + (+ = 0 μM ≤ SC150 < 0.05 μM) |
| CN(C)[C@H]1CC[C@@H](Nc2cccc3c2cc(C#CCOc2ccc(S(C)(=O)=O)cc2N)n3CC(F)(F)F)CC1 [Compound 94A, (1S,4S)-N4-{2-[3-(2-amino-4-methane-sulfonylphenoxy)prop-1-yn-1-yl]-1-(2,2,2-trifluoroethyl)-1H-indol-4-yl}-N^1,N^1-dimethylcyclohexane-1,4-diamine] | +++ (+++ = 0.1 μM ≤ SC150 < 0.2 μM) |
| CCOc1cc(S(C)(=O)=O)ccc1NCC#Cc1cc2c(N[C@H]3CC[C@H](N(C)C)CC3)cccc2n1CC(F)(F)F [Compound 95A, (1R,4R)—N^4-(2-{3-[(2-ethoxy-4-methanesulfonylphenyl)amino]prop-1-yn-1-yl}-1-(2,2,2-trifluoroethyl)-1H-indol-4-yl)-N^1,N^1-dimethylcyclohexane-1,4-diamine] | + (+ = 0 μM ≤ SC150 < 0.05 μM) |
| CCOc1cc(S(C)(=O)=O)ccc1NCC#Cc1cc2c(N[C@H]3CC[C@@H](N(C)C)CC3)cccc2n1CC(F)(F)F [Compound 96A, (1S,4S)-N^4-(2-{3-[(2-ethoxy-4-methane-sulfonylphenyl)amino]prop-1-yn-1-yl}-1-(2,2,2-trifluoroethyl)-1H-indol-4-yl)-N^1,N^1-dimethylcyclohexane-1,4-diamine] | ++ (++ = 0.05 μM ≤ SC150 < 0.1 μM) |
| CNC(=O)c1ccc(NCC#Cc2cc3c(N[C@H]4CC[C@@H](N(C)C)CC4)cccc3n2CC(F)(F)F)c(O)c1 [Compound 97A, 3-hydroxy-N-methyl-4-{[3-(4-{[(1S,4S)-4-(dimethylamino)cyclo-hexyl]amino}-1-(2,2,2-trifluoroethyl)-1H-indol-2-yl)prop-2-yn-1-yl]amino}benzamide] | + (+ = 0 μM ≤ SC150 < 0.05 μM) |
| CNC(=O)c1ccc(NCC#Cc2cc3c(N[C@H]4CC[C@H](N(C)C)CC4)cccc3n2CC(F)(F)F)c(O)c1 [Compound 98A, 3-hydroxy-N-methyl-4-{[3-(4-{[(1R,4R)-4-(dimethylamino)cyclo-hexyl]amino}-1-(2,2,2-trifluoroethyl)-1H-indol-2-yl)prop-2-yn-1-yl]amino}benzamide] | + (+ = 0 μM ≤ SC150 < 0.05 μM) |
| CNC(=O)c1ccc(NCC#Cc2cc3c(N[C@H]4CC[C@@H](N(C)C)CC4)cccc3n2CC(F)(F)F)c(OCCOC)c1 [Compound 99A, 3-(2-methoxyethoxy)-N-methyl-4-{[3-(4-{[(1S,4S)-4-(dimethyl-amino)cyclohexyl]amino}-1-(2,2,2-trifluoroethyl)-1H-indol-2-yl)prop-2-yn-1-yl]amino}benzamide] | + (+ = 0 μM ≤ SC150 < 0.05 μM) |
| CN(C)[C@H]1CC[C@H](Nc2cccc3c2cc(C#CCOc2ccc(S(C)(=O)=O)cc2N)n3CC(F)(F)F)CC1 [Compound 100A, (1R,4R)-N^4-{2-[3-(2-amino-4-methane-sulfonylphenoxy)prop-1-yn-1-yl]-1-(2,2,2-trifluoroethyl)-1H-indol-4-yl}-N^1,N^1-dimethylcyclohexane-1,4-diamine] | + (+ = 0 μM ≤ SC150 < 0.05 μM) |
| CCNC(=O)c1ccc(NCC#Cc2cc3c(N[C@H]4CC[C@H](N(C)C)CC4)cccc3n2CC(F)(F)F)c(OC)c1 [Compound 101A, N-ethyl-3-methoxy-4-{[3-(4-{[(1R,4R)-4-(dimethylamino)cyclo-hexyl]amino}-1-(2,2,2-trifluoroethyl)-1H-indol-2-yl)prop-2-yn-1-yl]amino}benzamide] | + (+ = 0 μM ≤ SC150 < 0.05 μM) |
| CCNC(=O)c1ccc(NCC#Cc2cc3c(N[C@H]4CC[C@@H](N(C)C)CC4)cccc3n2CC(F)(F)F)c(OC)c1 [Compound 102A, N-ethyl-3-methoxy-4-{[3-(4-{[(1S,4S)-4-(dimethylamino)cyclo-hexyl]amino}-1-(2,2,2-trifluoroethyl)-1H-indol-2-yl)prop-2-yn-1-yl]amino}benzamide] | + (+ = 0 μM ≤ SC150 < 0.05 μM) |
| CNC(=O)c1ccc(NCC#Cc2cc3c(N[C@H]4CC[C@H](N(C)C)CC4)cccc3n2CC(F)(F)F)c(OCCOC)c1 [Compound 103A, 3-(2-methoxyethoxy)-N-methyl-4-{[3-(4-{[(1R,4R)-4-(dimethylamino)cyclo-hexyl]amino}-1-(2,2,2-trifluoroethyl)-1H-indol-2-yl)prop-2-yn-1-yl]amino}benzamide] | + (+ = 0 μM ≤ SC150 < 0.05 μM) |
| CNC(=O)c1ccc(NCC#Cc2cc3c(N[C@H]4CC[C@H](N(C)C)CC4)cccc3n2CC(F)(F)F)c(OCCF)c1 [Compound 104A, 3-(2-fluoroethoxy)-N-methyl-4-{[3-(4-{[(1R,4R)-4-(dimethyl-amino)cyclohexyl]amino}-1-(2,2,2-trifluoro-ethyl)-1H-indol-2-yl)prop-2-yn-1-yl]amino}benzamide] | + (+ = 0 μM ≤ SC150 < 0.05 μM) |
| CNC(=O)c1ccc(NCC#Cc2cc3c(N[C@H]4CC[C@@H](N(C)C)CC4)cccc3n2CC(F)(F)F)c(OCCF)c1 [Compound 105A, 3-(2-fluoroethoxy)-N-methyl-4-{[3-(4-{[(1S,4S)-4-(dimethyl-amino)cyclohexyl]amino}-1-(2,2,2-trifluoro-ethyl)-1H-indol-2-yl)prop-2-yn-1-yl]amino}benzamide] | + (+ = 0 μM ≤ SC150 < 0.05 μM) |
| CNC(=O)c1ccc(NCC#Cc2cc3c(N[C@H]4CC[C@H](N(C)C)CC4)cccc3n2CC(F)(F)F)c(OCF)c1 [Compound 106A, 3-(fluoromethoxy)-N-methyl-4-{[3-(4-{[(1R,4R)-4-(dimethyl-amino)cyclohexyl]amino}-1-(2,2,2-trifluoro-ethyl)-1H-indol-2-yl)prop-2-yn-1-yl]amino}benzamide] | + (+ = 0 μM ≤ SC150 < 0.05 μM) |
| CNC(=O)c1ccc(NCC#Cc2cc3c(N[C@H]4CC[C@@H](N(C)C)CC4)cccc3n2CC(F)(F)F)c(OCF)c1 [Compound 107A, 3-(fluoromethoxy)-N-methyl-4-{[3-(4-{[(1S,4S)-4-(dimethyl-amino)cyclohexyl]amino}-1-(2,2,2-trifluoro-ethyl)-1H-indol-2-yl)prop-2-yn-1-yl]amino}benzamide] | + (+ = 0 μM ≤ SC150 < 0.05 μM) |
| CNc1cc(S(C)(=O)=O)ccc1OCC#Cc1cc2c(N[C@H]3CC[C@@H](N(C)C)CC3)cccc2n1CC(F)(F)F [Compound 108A, (1S,4S)-N^4-(2-{3-[4-methanesulfonyl-2-(methylamino)phenoxy]prop-1-yn-1-yl}-1-(2,2,2-trifluoroethyl)-1H-indol-4-yl)-N^1,N^1-dimethylcyclohexane-1,4-diamine] | ++ (++ = 0.05 μM ≤ SC150 < 0.1 μM) |
| CNc1cc(S(C)(=O)=O)ccc1OCC#Cc1cc2c(N[C@H]3CC[C@H](N(C)C)CC3)cccc2n1CC(F)(F)F [Compound 109A, (1R,4R)-N^4-(2-{3-[4-methanesulfonyl-2-(methylamino)phenoxy]prop-1-yn-1-yl}-1-(2,2,2-trifluoroethyl)-1H-indol-4-yl)-N^1,N^1-dimethylcyclohexane-1,4-diamine] | + (+ = 0 μM ≤ SC150 < 0.05 μM) |
| CNC(=O)c1ccc(NCC#Cc2cc3c(N[C@H]4CC[C@@H](NC)CC4)cccc3n2CC(F)(F)F)c(OC)c1 [Compound 110A, 3-methoxy-N-methyl-4-{[3-(4-{[(1S,4S)-4-(methylamino)cyclohexyl]amino}-1-(2,2,2-trifluoro-ethyl)-1H-indol-2-yl)prop-2-yn-1-yl]amino}benzamide] | + (+ = 0 μM ≤ SC150 < 0.05 μM) |
